Entries after “also recorded” stand apart in the source; their conditions may differ.
What was measured:
FVIII = FVIII activation in rTF/FVIIa-initiated reactions with FX, prothrombin, FVIII, FV (immunoblot); details: thrombin blocked with 4 μM DAPA
Procedure: Quantification of generated FVIIIa-A1 calibrated with known quantities of the fragment. (B) FVIIIa activity calculated from FXa generation in reactions as in (A), but with 10 nM FIXa added and incubated for 180 s at 37° C. (n=4-12). FXa generation depend-ent on FVIIIa-FIXa activity was calculated by subtracting FXa generated by FVIIa and FIXa added individually from that by FVIIa/FIXa added together. (C) FVIIIa activity generated and calculated in reaction as in (A, B) but with the addition of 10 nM TFPIα. Results in A (bottom), B and C—shown as 25th-75th percentile bars, min-to-max whiskers, line at the median; or min-to-max floating bars with line at the mean when n≤3—were analyzed by ANOVA/Tukey tests. ***P<0.001; NS, not significant.
Reactions in 50 mM Tris-buffered saline, pH 7.4, with 0.1% bovine serum albumin included 0.7 nM FVIII, 3 nM FV, 135 nM FX and 1 μM prothrombin without/with 4 μM DAPA. TFPI and other inhibitors were added as indicated. […] After quenching the reaction with 10 mM EDTA, generated FXa was measured with S-2765 (180 μM). FVIIIa procoagulant activity was measured as FIXa-dependent FXa generation; FVIIIa procoagulant activity generated by the nascent TF-FVIIa-FXa complex was calculated by subtracting the amount of FXa produced in reactions initiated by FVIIa and FIXa individually from that produced in reactions initiated by FVIIa/FIXa combined. […]

thrombin generation (TG) = assay type: biochemical, human; details: recalcified PRP containing CTI
Procedure: TG in PRP or reconstituted PRP was evaluated as known to those skilled in the art. Native PRP was prepared from blood collected into final 12.9 mM trisodium citrate by centrifugation at 250 g for 10 min at 25° C. The platelet count was adjusted to 180×10^3/μl by dilution with homologous PPP obtained by centrifuging PRP for 10 min at 1,500 g. CTI was added at 30-50 μg/ml depending on calibrated potency as assessed by FXIIa inhibition. Reconstituted PRP was prepared with washed platelets prepared from normal PRP by adding ⅕th volume of acid citrate-dextrose (71 mM citric acid, 85 mM trisodium citrate, and 111 mM dextrose, pH 4.5) and 5 U/ml apyrase; following centrifugation at 1,500 g for 10 minutes at 25° C., the platelet pellet was resuspended into PPP lacking FVII (George King Bio-Medical) or FIX (Haematologic Technologies) to give a final platelet count of 180·103/μl PRP was mixed with varying concentrations of rTF and/or 20 pM FIXa in 96-well microtiter plates. The reaction was started by adding 18 mM CaCl2 with 360 μM of the thrombin substrate benzyloxycarbonyl-glycyl-glycyl-L-arginine coupled to the fluorogenic group 7-amido-4-methylcoumarin (Gly-Gly-Arg-AMC; Bachem Americas, Torrance, Calif.). Fluorescence was measured continuously at 37° C. for up to 40 min in a spectrofluorometer (355/460 nm excitation/emission). The rate of fluorescence intensity increase as a function of time (dF/dt) was calculated with Turbo Delphi 2006 (Borland Software Corporation, Austin, Tex.) and converted to thrombin-equivalent concentration (nM) using a calibration curve. The endogenous thrombin potential (ETP) of samples, i.e. total generated thrombin activity, was determined from the area under the TG curve. When specified, TG was measured with a discontinuous 2-stage assay with a detection limit of 5 pM. For this, TG was induced by 0.15 pM rTF and 18 mM CaCl2 in reconstituted FVII-deficient PRP including 30 μg/ml CTI with 400 pM WT FVIIa or iFVIIa without or with 20 pM FIXa. After incubation for up to 11 min at 37° C., reactions were terminated by adding 20 mM EDTA and generated thrombin was measured using the highly sensitive thrombin substrate H-D-CHA-Ala-Arg-AMC.2AcOH (Pefafluor TH, Pentapharm, Basel, Switzerland) at 50 μM concentration. In other experiments, TG was induced by TFiFVIIa-FXa-TFPI or TF-iFVIIa-FXa-NAPc2. These stable complexes were pre-formed by incubating 5 nM FXa, 10 nM TF, 10 nM iFVIIa and 40 nM TFPI or NAPc2 in the presence of 2.5 mM CaCl2 for 2 min at 37° C. Complexes were added into FVII-deficient PRP, followed by incubation for 8 min at 37° C.
PRP was prepared from blood collected into trisodium citrate (final concentration 0.0129 M) by centrifugation for at 250 g for 10 min at 25° C.; the platelet count was adjusted at 180.103 per μl by diluting with homologous platelet-poor plasma (PPP) obtained by centrifuging PRP for an additional 10 min at 1,500 g. When indicated, CTI was added at 30 to 50 μg/ml depending on calibrated potency measured by FXIIa inhibition. Reconstituted PRP was prepared by adding normal washed platelets into PPP (without or with CTI) lacking FVII, FVIII (both from George King Bio-Medical, Overland Park, Kans.) or FIX (Haematologic Technologies). […] generation in PRP was measured as described by Hemker et al. 53 μl of PRP was mixed in 96-well microtiter plates with 15 μl of a solution containing rTF and/or one of the intrinsic coagulation pathway proteases—FXIIa, FXIa or FIXa—to achieve the indicated final concentrations. Antibodies or inhibitors were also added at this point at the concentration indicated for each specific case. The reaction was started by adding between 15 and 20 μl of 100 mM CaCl2 and 2 mM fluorogenic substrate, benzyloxycarbonyl-glycyl-glycyl-L-arginine-7-amido-4-methylcoumarin (Gly-Gly-Arg-AMC; Bachem Americas, Torrance, Calif.).

immobilized rTF = assay: Blood perfusion over immobilized rTF, volume of platelet aggregates and fibrin; assay type: cell-based, human
Procedure: (§1) Glass coverslips treated with 0.2 mg/ml poly-L-lysine for 6 h at 37° C. were coated with rTF for 18-20 hours at 37° C. or 2.5 mg/ml acid-insoluble type I collagen for 2 hours at 22-25° C. Then they were rinsed with pH 7.4 buffered-saline, assembled in a rectangular flow chamber with a 125 μm-high silicon gasket and positioned on a confocal microscope stage for analysis. Venous blood for testing was collected into final 10.9 mM trisodium citrate using a plastic syringe for normal volunteers or Vacutainer tubes (Becton Dickinson, Buccinasco, Milan) for patients and controls. Before perfusion at a flow rate yielding an initial wall shear rate of 300 s^−1 maintained with a syringe pump (Harvard Apparatus, Holliston, Mass.), CaCl2 was added to obtain 1.29 mM Ca^2+. In the blood of patients—potentially hypercoagulable—and related controls, lepirudin (50 nM) was also added to neutralize thrombin possibly generated before testing. […] For experiments with WT and mutant FVIIa, cells from group O citrated blood, containing 50 μg/ml CTI and 10 U/ml (ADPase activity) apyrase, were washed free of plasma by sequential centrifugation steps at 1500 g for 7 min. After the first, plasma was replaced with an equal volume of calcium-free Tyrode buffer, pH 6.5, with 5 U/ml apyrase; then with buffer and 1.25 U/ml apyrase; and finally with human FVII deficient plasma (George King Bio-Medical, Overland Park, Kans.) up to the original blood volume. Cell count results in reconstituted and native blood were within 90%. Experiments in Milan (Italy) were performed with a Leica TCS SP5 microscope and HCX PL APO 63x/1.40 NA oil immersion objective (Leica Microsystems GmbH, Wetzlar, Germany); in La Jolla (California) with a Zeiss Axiovert 135M/LSM 410 and Plan-Apochromat 40x/1.40 NA oil immersion objective (Carl Zeiss AG, Oberkochen, Germany).
(§2) Platelets adhering and aggregating onto the surface were visualized by adding quinacrine-HCl (mepacrine; 10 μg/ml; Sigma-Aldrich) to blood. Deposited fibrin was visualized with Alexa Fluor 546-labeled (Invitrogen) mouse monoclonal IgG (50 μg/ml) specific for the B chain of mouse and human fibrin (HB-8545; ATCC). Blood was perfused for 3-5 min at 37° C. with a syringe pump (Harvard Apparatus Inc.) at a flow rate yielding an initial (in the unobstructed flow path) wall shear rate of 300 s^−1. This was followed by buffer (DMEM) for 2 minutes to facilitate fibrin quantification by confocal z section analysis using a Zeiss Axiovert 135M/LSM 410 microscope (Carl Zeiss) and Plan-Apochromat×63/1.40 NA oil immersion objective. Image analysis was performed with NIH ImageJ64. Deposited fibrin volume was measured from confocal sections collected at 4 preset positions in the flow chamber. Total volume of deposited platelets and fibrin was calculated from the sum of the respective area coverage per section multiplied by the z interval (2 μm). All studies involving human subjects were conducted following institutionally approved protocols.
TF-coated glass coverslips were perfused with venous blood at a wall shear rate of 300 s^−1. A Zeiss Axiovert 135M/LSM 410 and Plan-Apochromat 40x/1.40 NA oil immersion objective (Carl Zeiss AG, Oberkochen, Germany) was used to visualize platelets/leukocytes and fibrin stained with mepacrine and a specific anti-body, respectively. Image analysis to calculate volumes was performed as described herein.
Glass coverslips treated with 0.2 mg/ml poly-L-lysine for 6 h at 37° C. were coated with rTF for 18-20 hours at 37° C., rinsed with buffered-saline and assembled in a rectangular flow chamber with a 125 μm-high silicon gasket. Venous blood was collected into final 10.9 mM trisodium citrate using a plastic syringe. CaCl2 was added to obtain 1.29 mM Ca^2+ before perfusion at a wall shear rate of 300 s-1 maintained with a syringe pump (Harvard Apparatus, Holliston, Mass.). […]

[1] = system: fibrillar collagen type I; assay: Blood perfusion over fibrillar collagen type I, volume of platelet aggregates and fibrin; assay type: cell-based, human; details: blood of treated patients, collagen surface
Procedure: The volume of platelet aggregates and deposited fibrin was measured by confocal microscopy. Statistical analysis by one-way ANOVA and Tukey post-test. *P<0.05; **P<0.01; ***P<0.001.
as §1, with “Cell count results in reconstituted and native blood were within 90%.” left out
as §2, with “Blood was perfused for 3-5 min at 37° C. with a syringe pump (Harvard Apparatus Inc.) at a flow rate yielding an initial (in the unobstructed flow path) wall shear rate of 300 s^−1.” left out, “Image analysis was performed with NIH ImageJ64.” left out, “All studies involving human subjects were conducted following institutionally approved protocols.” left out

initial TG = assay: Discontinuous 2-stage assay of initial TG in platelet-poor plasma; assay type: biochemical, human
Procedure: FIG. 21 illustrates, in accordance with embodiments herein, TG assays in FVIII-deficient PPP without or with anti-FVIII inhibitors. (A) Initial TG in discontinuous 2-stage assay was induced by adding 150 fM rTF/200 pM FIXa and 5 μM PL, followed by incubation for 5 min at 37° C. Each column indicates mean+SEM (n=3) of generated FIIa. (B) Comparison of dose-response curve of added FVIII in TG in FVIII-deficient plasma by discontinuous 2-stage assay with that by continuous assay.
FIG. 22 illustrates, in accordance with embodiments herein, FVIIIa-dependent and -independent TG in plasma from Coumadin-treated patients. FVIIIa-dependent TG was induced by adding 150 fM rTF/200 pM FIXa with 1.3 μM PL, while FVIIIa-independent TG was by 1.2 pM rTF with 1.3 μM PL. Each column indicates mean+SEM (n=3) of generated FIIa after 3 min of incubation.
To establish highly sensitive TG assay method, the inventors made a screening of FIIa substrates with high affinity and turnover rate by determining kinetic parameters and then constructed a calibration curve with known concentrations of a FIIa calibrator. In the studies, they found two fluorogenic substrates H-D-cyclohexyl-alanyl-alanyl-argininyl-amidomethylcoumarin (AMC) (Pefafluor TH) and butyloxycarbonyl-valyl-prolinyl-argininyl-AMC (V-P-R-AMC) were suitable for quantifying much low concentrations of FIIa activity with a detection limit of ˜5 pM (FIG. 17). Initial TG was measured with “discontinuous 2-stage assay” using the high sensitive substrate. Briefly, TG was initiated by combined addition of rTF and FIXa with 18 mM CaCl2 into plasma, followed by incubation for up to 5 min at 37° C. After incubation, reactions were terminated with 20 mM EDTA and generated FIIa was measured using the highly sensitive FIIa substrate Pefafluor TH or V-P-R-AMC. In the assays, combined addition of 150 fM rTF and 200 pM FIXa time-dependently produced FIIa in normal platelet-poor plasma (PPP) prepared from healthy donors (FIG. 18A). […] To further validate the assay method, reproducibility of the TG assay method was examined by determination of intra-assay and inter-assay coefficient of variations (CV) using manual assay protocol.

TF-FVIIa = assay: FXa generation by TF-FVIIa in reactions with purified components; assay type: biochemical, human; details: reconstituted system

CCC1CCN(C(=O)C(CCCN=C(N)N)NS(=O)(=O)c2cccc3c(N(C)C)cccc23)CC1 (centres unmarked) [DAPA, dansylarginine N-(3-ethyl-1,5-pentanediyl)amide]
FVIIIa still detectable (FVIII): ~15%

COc1ccc(-n2nc(C(N)=O)c3c2C(=O)N(c2ccc(N4CCCCC4=O)cc2)CC3)cc1 [apixaban]
difference in dose response between rivaroxaban and apixaban (thrombin generation (TG)): ~3 fold

CC(=O)CC(c1ccccc1)c1c(O)c2ccccc2oc1=O (centres unmarked) [warfarin]
fibrin deposition (immobilized rTF; blood of treated patients, high density TF surface): significantly reduced
volume of deposited fibrin (immobilized rTF; blood of treated patients, higher rTF coating concentration, 300 s^-1, 5 min): markedly reduced fibrin formation
volume of deposited fibrin vs untreated controls (immobilized rTF; blood of treated patients, lower rTF coating concentration, 300 s^-1, 5 min): markedly smaller
volume of platelet aggregates vs controls (immobilized rTF; blood of treated patients, rTF coating 20 and 40 pM): significantly reduced on both rTF surfaces
mean volume of platelet aggregates vs controls [1]: not significantly different
volume of deposited fibrin vs controls [1]: significantly reduced; also recorded: markedly reduced
FVIIIa-independent TG (initial TG; 1.2 pM rTF alone without FIXa, patient plasma): abolished even at lower INR
initial FVIIIa-dependent TG (initial TG; patient plasma with INR 1.5, 150 fM rTF/200 pM FIXa, 1.3 μM PL, 3 min): ~15 % of normal plasma
initial FVIIIa-dependent TG (initial TG; patient plasma with INR 2.9, 150 fM rTF/200 pM FIXa, 1.3 μM PL, 3 min): ~5 % of normal plasma
initial FVIIIa-dependent TG (initial TG; patient plasma with much higher INR values): completely abolished

TFPI with protein S: TFPI with protein S (PS) cofactor
reduction of FXa produced by TF-FVIIa (TF-FVIIa): > 75%

recombinant [Leu1-Thr2]-63-desulfohirudin [lepirudin]
effect on deposited fibrin volume in the flow chamber (immobilized rTF; lepirudin 50 nM, preliminary experiments): limited effect

Source: patent publication US11136370B2, “Compositions and methods for thrombin generation assay” (The Scripps Research Institute, priority 2016, dated 2021)
